Reference: the NIST ThermoML archive (doi:10.1021/je400332j)

Experiment: xn = mol fraction of the nth substance listed
Conditions: 101 kPa, Liquid; for viscosity: Concentric cylinders viscometry; for mass density: Vibrating tube method

CCCCCCn1cc[n+](C)c1.F[B-](F)(F)F [1-hexyl-3-methylimidazolium tetrafluoroborate] + CCn1cc[n+](C)c1.F[B-](F)(F)F
Conditions | mass density [kg/m3] | viscosity [mPa·s]
293.15 K, x2 = 0 | 1147.5 | 280.4
293.15 K, x2 = 0.1009 | 1157.3 | 244.3
293.15 K, x2 = 0.2005 | 1168.1 | 210.7
293.15 K, x2 = 0.3003 | 1179.5 | 179.6
293.15 K, x2 = 0.4001 | 1191.4 | 151.7
293.15 K, x2 = 0.4999 | 1204.3 | 127.1
293.15 K, x2 = 0.6007 | 1218.1 | 105
293.15 K, x2 = 0.7004 | 1232.7 | 86.22
293.15 K, x2 = 0.8001 | 1248.5 | 69.78
293.15 K, x2 = 0.8998 | 1265.3 | 56.02
298.15 K, x2 = 0 | 1144.1 | 206.3
298.15 K, x2 = 0.1009 | 1153.9 | 180.8
298.15 K, x2 = 0.2005 | 1164.7 | 157.2
298.15 K, x2 = 0.3003 | 1176.1 | 135.1
298.15 K, x2 = 0.4001 | 1188 | 115.2
298.15 K, x2 = 0.4999 | 1200.8 | 97.48
298.15 K, x2 = 0.6007 | 1214.6 | 81.5
298.15 K, x2 = 0.7004 | 1229.1 | 67.79
298.15 K, x2 = 0.8001 | 1244.9 | 55.7
298.15 K, x2 = 0.8998 | 1261.7 | 45.42
303.15 K, x2 = 0 | 1140.6 | 154.9
303.15 K, x2 = 0.1009 | 1150.5 | 136.9
303.15 K, x2 = 0.2005 | 1161.2 | 119.8
303.15 K, x2 = 0.3003 | 1172.5 | 103.8
303.15 K, x2 = 0.4001 | 1184.4 | 89.33
303.15 K, x2 = 0.4999 | 1197.2 | 76.33
303.15 K, x2 = 0.6007 | 1211 | 64.52
303.15 K, x2 = 0.7004 | 1225.5 | 54.31
303.15 K, x2 = 0.8001 | 1241.2 | 45.2
303.15 K, x2 = 0.8998 | 1257.9 | 37.38
308.15 K, x2 = 0 | 1137.2 | 118.7
308.15 K, x2 = 0.1009 | 1147.1 | 105.5
308.15 K, x2 = 0.2005 | 1157.8 | 92.98
308.15 K, x2 = 0.3003 | 1169 | 81.23
308.15 K, x2 = 0.4001 | 1180.9 | 70.51
308.15 K, x2 = 0.4999 | 1193.6 | 60.8
308.15 K, x2 = 0.6007 | 1207.4 | 51.94
308.15 K, x2 = 0.7004 | 1221.8 | 44.18
308.15 K, x2 = 0.8001 | 1237.5 | 37.22
308.15 K, x2 = 0.8998 | 1254.2 | 31.18
313.15 K, x2 = 0 | 1133.7 | 92.56
313.15 K, x2 = 0.1009 | 1143.6 | 82.73
313.15 K, x2 = 0.2005 | 1154.3 | 73.45
313.15 K, x2 = 0.3003 | 1165.5 | 64.64
313.15 K, x2 = 0.4001 | 1177.4 | 56.57
313.15 K, x2 = 0.4999 | 1190.1 | 49.22
313.15 K, x2 = 0.6007 | 1203.8 | 42.45
313.15 K, x2 = 0.7004 | 1218.2 | 36.47
313.15 K, x2 = 0.8001 | 1233.8 | 31.06
313.15 K, x2 = 0.8998 | 1250.4 | 26.32
318.15 K, x2 = 0 | 1130.3 | 73.37
318.15 K, x2 = 0.1009 | 1140.3 | 65.95
318.15 K, x2 = 0.2005 | 1150.9 | 58.94
318.15 K, x2 = 0.3003 | 1162 | 52.24
318.15 K, x2 = 0.4001 | 1173.9 | 46.08
318.15 K, x2 = 0.4999 | 1186.5 | 40.41
318.15 K, x2 = 0.6007 | 1200.2 | 35.16
318.15 K, x2 = 0.7004 | 1214.6 | 30.49
318.15 K, x2 = 0.8001 | 1230.1 | 26.23
318.15 K, x2 = 0.8998 | 1246.7 | 22.48
323.15 K, x2 = 0 | 1127 | 59.03
323.15 K, x2 = 0.1009 | 1136.9 | 53.34
323.15 K, x2 = 0.2005 | 1147.4 | 47.98
323.15 K, x2 = 0.3003 | 1158.5 | 42.8
323.15 K, x2 = 0.4001 | 1170.4 | 38.02
323.15 K, x2 = 0.4999 | 1183 | 33.6
323.15 K, x2 = 0.6007 | 1196.6 | 29.48
323.15 K, x2 = 0.7004 | 1211 | 25.79
323.15 K, x2 = 0.8001 | 1226.4 | 22.4
323.15 K, x2 = 0.8998 | 1242.9 | 19.38
328.15 K, x2 = 0 | 1123.6 | 48.16
328.15 K, x2 = 0.1009 | 1133.5 | 43.73
328.15 K, x2 = 0.2005 | 1144 | 39.57
328.15 K, x2 = 0.3003 | 1155.1 | 35.51
328.15 K, x2 = 0.4001 | 1166.9 | 31.77
328.15 K, x2 = 0.4999 | 1179.4 | 28.27
328.15 K, x2 = 0.6007 | 1192.9 | 25.02
328.15 K, x2 = 0.7004 | 1207.4 | 22.05
328.15 K, x2 = 0.8001 | 1222.7 | 19.31
328.15 K, x2 = 0.8998 | 1239.2 | 16.85
333.15 K, x2 = 0 | 1120.2 | 39.71
333.15 K, x2 = 0.1009 | 1130.1 | 36.3
333.15 K, x2 = 0.2005 | 1140.6 | 33.02
333.15 K, x2 = 0.3003 | 1151.6 | 29.82
333.15 K, x2 = 0.4001 | 1163.4 | 26.83
333.15 K, x2 = 0.4999 | 1176 | 24.04
333.15 K, x2 = 0.6007 | 1189.5 | 21.41
333.15 K, x2 = 0.7004 | 1203.8 | 19.03
333.15 K, x2 = 0.8001 | 1219.1 | 16.8
333.15 K, x2 = 0.8998 | 1235.6 | 14.78
338.15 K, x2 = 0 | 1116.8 | 33.21
338.15 K, x2 = 0.1009 | 1126.7 | 30.47
338.15 K, x2 = 0.2005 | 1137.2 | 27.86
338.15 K, x2 = 0.3003 | 1148.2 | 25.3
338.15 K, x2 = 0.4001 | 1160 | 22.92
338.15 K, x2 = 0.4999 | 1172.5 | 20.64
338.15 K, x2 = 0.6007 | 1186 | 18.52
338.15 K, x2 = 0.7004 | 1200.2 | 16.56
338.15 K, x2 = 0.8001 | 1215.5 | 14.73
338.15 K, x2 = 0.8998 | 1231.9 | 13.05
343.15 K, x2 = 0 | 1113.4 | 28.03
343.15 K, x2 = 0.1009 | 1123.4 | 25.82
343.15 K, x2 = 0.2005 | 1133.8 | 23.74
343.15 K, x2 = 0.3003 | 1144.8 | 21.65
343.15 K, x2 = 0.4001 | 1156.5 | 19.72
343.15 K, x2 = 0.4999 | 1169 | 17.89
343.15 K, x2 = 0.6007 | 1182.4 | 16.11
343.15 K, x2 = 0.7004 | 1196.7 | 14.52
343.15 K, x2 = 0.8001 | 1212 | 13
343.15 K, x2 = 0.8998 | 1228.3 | 11.6
